Drawing on the SangsterLogP compilation, this text covers logD for 13 compounds.

Molecules are shown by their SMILES.

A short description of the data set: method code SF-AS, from DOI: 10.1246/bcsj.68.782. To be noted: pH 2.0.
Broadly, the logD is the decadic logarithm of the distribution of all forms, ionised or not, between an organic phase and buffer at a given pH. High values mean a more lipophilic compound, low ones a more hydrophilic compound. Regarding `O=C(O)c1cc(Cl)cc(Cl)c1`, the logD was 3.29. As for `O=C(O)c1cc(O)c(Br)c(O)c1`, the figure is 1.75; as for `Cc1cc(C(=O)O)ccc1[N+](=O)[O-]`, 2.42. Compound `COc1cc(C(=O)O)cc(OC)c1OC` returned a log distribution coefficient (logD) of 1.66. `COc1cc(C(=O)O)cc(OC)c1O`: the logD turned out to be 1.13. `Cc1ccc([N+](=O)[O-])c(C(=O)O)c1` returned a pH-dependent lipophilicity (logD) of 1.63. On to `O=C(O)c1ccc(Cl)cc1Cl`, for which the logD was 2.76. As for `Cc1c(C(=O)O)cccc1[N+](=O)[O-]`, the figure is 2.16; as for `O=C(O)c1ccc(Cl)c([N+](=O)[O-])c1`, 2.53; as for `Cc1ccc(C(=O)O)cc1[N+](=O)[O-]`, 2.35. As for `O=C(O)c1cccc(F)c1F`, the figure is 1.88. As for `Cc1ccc(C(=O)O)c(O)c1`, the figure is 2.8; as for `COc1c([N+](=O)[O-])cc(C(=O)O)cc1[N+](=O)[O-]`, 1.73.
